Experimental data from PubChem BioAssay AID2060899 (Molecular Pharmacology Branch, DTP, NCI, 2025).

Tested on: 565726-208-R1-J5-PDC complex spheroids, growth inhibition
Assay: Anticancer human tumor 565726-208-R1-J5-PDC patient-derived pancreatic adenocarcinoma cell line growth inhibition [RAS]
Conditions: for IC50: curve of first compound; for viability, T/C: stronger effect = lower value; active = viability on the fitted dose curve at most 10% of control; inactive = the rest
Method in brief: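 Tumour cells grown as complex spheroids with HUVEC endothelial cells and mesenchymal stem cells, treated with RAS pathway inhibitor combinations. Each agent spans half-log steps from near clinical Cmax, or 10 microM where Cmax is unknown.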
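Also: spheroids exposed to compounds for seven days before readout.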
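For viability, T/C in this document: 100% = DMSO vehicle control viability.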

C=CC(=O)N1CCN(c2nc(OCC3CCCN3C)nc3c(F)c(-c4nc(N)cc(C)c4C(F)(F)F)c(Cl)cc23)C(C)C1 (centres undefined) + CCn1c(-c2cc(N3CCN(C)CC3)cnc2C(C)OC)c2c3cc(ccc31)-c1csc(n1)CC(NC(=O)C1CC1C)C(=O)N1CCCC(N1)C(=O)OCC(C)(C)C2
inactive: viability, T/C (second compound 0.000949 µM, first compound 0.00316 µM) 63.5% | viability, T/C (second compound 0.000949 µM, first compound 0.01 µM) 59.2% | viability, T/C (second compound 0.000949 µM, first compound 0.0316 µM) 61.2% | viability, T/C (second compound 0.000949 µM, first compound 0.1 µM) 63.1% | viability, T/C (second compound 0.000949 µM, first compound 0.316 µM) 62.5% | viability, T/C (second compound 0.000949 µM, first compound 1 µM) 57.9% | viability, T/C (second compound 0.003 µM, first compound 0.00316 µM) 50.9% | viability, T/C (second compound 0.003 µM, first compound 0.01 µM) 43.8% | viability, T/C (second compound 0.003 µM, first compound 0.0316 µM) 53.3% | viability, T/C (second compound 0.003 µM, first compound 0.1 µM) 51.4% | viability, T/C (second compound 0.003 µM, first compound 0.316 µM) 50.5% | viability, T/C (second compound 0.003 µM, first compound 1 µM) 43.5% | viability, T/C (second compound 0.00949 µM, first compound 0.00316 µM) 40.5% | viability, T/C (second compound 0.00949 µM, first compound 0.01 µM) 39.7% | viability, T/C (second compound 0.00949 µM, first compound 0.0316 µM) 34% | viability, T/C (second compound 0.00949 µM, first compound 0.1 µM) 41.8% | viability, T/C (second compound 0.00949 µM, first compound 0.316 µM) 39.9% | viability, T/C (second compound 0.00949 µM, first compound 1 µM) 34.1% | viability, T/C (second compound 0.03 µM, first compound 0.00316 µM) 29% | viability, T/C (second compound 0.03 µM, first compound 0.01 µM) 32.3% | viability, T/C (second compound 0.03 µM, first compound 0.0316 µM) 29.9% | viability, T/C (second compound 0.03 µM, first compound 0.1 µM) 31.7% | viability, T/C (second compound 0.03 µM, first compound 0.316 µM) 34.5% | viability, T/C (second compound 0.03 µM, first compound 1 µM) 29.4% | viability, T/C (second compound 0.0949 µM, first compound 0.00316 µM) 23.1% | viability, T/C (second compound 0.0949 µM, first compound 0.01 µM) 27.1% | viability, T/C (second compound 0.0949 µM, first compound 0.0316 µM) 25.5% | viability, T/C (second compound 0.0949 µM, first compound 0.1 µM) 27.5% | viability, T/C (second compound 0.0949 µM, first compound 0.316 µM) 29.2% | viability, T/C (second compound 0.0949 µM, first compound 1 µM) 24.3% | viability, T/C (second compound 0.3 µM, first compound 0.00316 µM) 22.6% | viability, T/C (second compound 0.3 µM, first compound 0.01 µM) 22.1% | viability, T/C (second compound 0.3 µM, first compound 0.0316 µM) 23.2% | viability, T/C (second compound 0.3 µM, first compound 0.1 µM) 22.1% | viability, T/C (second compound 0.3 µM, first compound 0.316 µM) 25.6% | viability, T/C (second compound 0.3 µM, first compound 1 µM) 22.6%
6.29 nM: IC50 (second compound 0.003 µM)
> 1000 nM: IC50 (second compound 0.000949 µM)
< 3.16 nM: IC50 (second compound 0.00949 µM) | IC50 (second compound 0.03 µM) | IC50 (second compound 0.0949 µM) | IC50 (second compound 0.3 µM)

CC1(C)CCC(Nc2ncc(C(F)(F)F)c(-c3c[nH]c4c(P(C)(C)=O)c(C#N)ccc34)n2)CN1 (centres undefined) + CCn1c(-c2cc(N3CCN(C)CC3)cnc2C(C)OC)c2c3cc(ccc31)-c1csc(n1)CC(NC(=O)C1CC1C)C(=O)N1CCCC(N1)C(=O)OCC(C)(C)C2
< 0.949 nM: IC50 (second compound 0.003 µM) | IC50 (second compound 0.00949 µM) | IC50 (second compound 0.03 µM) | IC50 (second compound 0.0949 µM) | IC50 (second compound 0.3 µM)
1.34 nM: IC50 (second compound 0.000949 µM)
inactive: viability, T/C (second compound 0.000949 µM, first compound 0.000949 µM) 54.4% | viability, T/C (second compound 0.000949 µM, first compound 0.003 µM) 41.2% | viability, T/C (second compound 0.000949 µM, first compound 0.00949 µM) 30.8% | viability, T/C (second compound 0.000949 µM, first compound 0.03 µM) 31.5% | viability, T/C (second compound 0.000949 µM, first compound 0.0949 µM) 31.6% | viability, T/C (second compound 0.000949 µM, first compound 0.3 µM) 34.4% | viability, T/C (second compound 0.003 µM, first compound 0.000949 µM) 46.8% | viability, T/C (second compound 0.003 µM, first compound 0.003 µM) 40.3% | viability, T/C (second compound 0.003 µM, first compound 0.00949 µM) 38.4% | viability, T/C (second compound 0.003 µM, first compound 0.03 µM) 28.9% | viability, T/C (second compound 0.003 µM, first compound 0.0949 µM) 32.6% | viability, T/C (second compound 0.003 µM, first compound 0.3 µM) 29.9% | viability, T/C (second compound 0.00949 µM, first compound 0.000949 µM) 37.3% | viability, T/C (second compound 0.00949 µM, first compound 0.003 µM) 36.1% | viability, T/C (second compound 0.00949 µM, first compound 0.00949 µM) 30.4% | viability, T/C (second compound 0.00949 µM, first compound 0.03 µM) 30.7% | viability, T/C (second compound 0.00949 µM, first compound 0.0949 µM) 28.1% | viability, T/C (second compound 0.00949 µM, first compound 0.3 µM) 28.7% | viability, T/C (second compound 0.03 µM, first compound 0.000949 µM) 30% | viability, T/C (second compound 0.03 µM, first compound 0.003 µM) 30.9% | viability, T/C (second compound 0.03 µM, first compound 0.00949 µM) 26.4% | viability, T/C (second compound 0.03 µM, first compound 0.03 µM) 25.5% | viability, T/C (second compound 0.03 µM, first compound 0.0949 µM) 28.5% | viability, T/C (second compound 0.03 µM, first compound 0.3 µM) 26% | viability, T/C (second compound 0.0949 µM, first compound 0.000949 µM) 24.8% | viability, T/C (second compound 0.0949 µM, first compound 0.003 µM) 27.1% | viability, T/C (second compound 0.0949 µM, first compound 0.00949 µM) 26.1% | viability, T/C (second compound 0.0949 µM, first compound 0.03 µM) 24% | viability, T/C (second compound 0.0949 µM, first compound 0.0949 µM) 26.8% | viability, T/C (second compound 0.0949 µM, first compound 0.3 µM) 23.8% | viability, T/C (second compound 0.3 µM, first compound 0.000949 µM) 22.5% | viability, T/C (second compound 0.3 µM, first compound 0.003 µM) 23.4% | viability, T/C (second compound 0.3 µM, first compound 0.00949 µM) 22.8% | viability, T/C (second compound 0.3 µM, first compound 0.03 µM) 22.4% | viability, T/C (second compound 0.3 µM, first compound 0.0949 µM) 25.4% | viability, T/C (second compound 0.3 µM, first compound 0.3 µM) 21.9%
